Measurements from publication PMC6915869, “Immunosuppressive effects of a novel potassium channel toxin Ktx-Sp2 from Scorpiops Pocoki” (Cell & Bioscience, 2019).
“Also recorded” adds a separate entry of the source. Bridge positions count the residues as written; N and C are the ends. Peptide text beside a SMILES is read from it.

Tests used:
[1] = biological target: T1, endogenous Kv1.3 expressed by human Jurkat T cells (Homo sapiens, UniProt P22001); assay: Whole-cell patch-clamp, endogenous Kv1.3 in Jurkat T cells; type: cell-based
T1 construct: endogenous Kv1.3 expressed by human Jurkat T cells; host or cells: Jurkat E6-1 T cells
Experimental: (§1) Mouse spinal columns were removed and placed in ice cold HBSS, then laminectomies were performed and bilateral DRG were dissected out. After removal of connective tissues, DRG were transferred to a 1 ml Ca^2+/Mg^2+-free HBSS containing 2 μl saturated NaHCO3, 0.35 mg L-cysteine and 20 U papain (Worthington, Lakewood, NJ, USA), and incubated at 37 °C for 10 min. The suspension of DRG was centrifuged, the supernatant was removed, 1 ml Ca^2+/Mg^2+-free HBSS containing 4 mg collagenase type II and 1.25 mg dispase type II (Worthington) was added and incubated at 37 °C for 10 min. After digestion, neurons were pelleted, suspended in neurobasal medium containing 2% B-27 supplement, 1% L-glutamine, 100 U/ml penicillin plus 100 μg/ml streptomycin, and 50 ng/ml nerve growth factor, plated on a 12 mm coverslip coated with poly-L-lysine (10 μg/ml) and cultured under a humidified atmosphere of 5% CO2/95% air at 37 °C for 18–24 h before use. Jurkat E6-1 T cells (ATCC TIB152) and HEK293T cells (ATCC ACS4500) were maintained in RPMI medium 1640 (Invitrogen, Carlsbad, CA, USA) and Dulbecco’s modified Eagle’s medium (DMEM) (Life Technologies,GrandIsland, NY, USA), supplemented with 10% fetal bovine serum (Life Technologies), 100 units/ml penicillin, 100 μg/ml streptomycin, respectively. Cells were cultured in a humidified incubator at 37 °C with 5% CO2. The cDNAs encoding mKv1.1, mKv1.2, mKv1.3, mNav1.4, mNav1.5 and mNav1.7 were subcloned into the XhoI/BamHI sites of a bicistronic vector, pIRES2-EGFP (Clontech, USA), then transiently transfected into HEK293-T cells using Lipofectamine 2000 (Invitrogen) for electrophysiological experiments.
Whole-cell patch-clamp recordings were performed using an EPC 9 amplifier (HEKA Elektronik, Lambrecht/Pfalz, Germany) at room temperature (22–24 °C). Pipettes pulled from borosilicate glass (BF 150-86-10; Sutter Instrument Company, Novato, CA, USA) had resistances of 2–4 MΩ when filled with the internal solution. The internal pipette solution for recording Kv currents contained: KCl 140 mM, MgCl2 1 mM, EGTA 1 mM, Na2ATP 3 mM, HEPES 10 mM (pH 7.3 with KOH); for recording Na currents contained: CsCl 100 mM, CsF 40 mM, MgCl2 2 mM, HEPES 10 mM, EGTA 10 mM, D-Glucose 10 mM, Na2ATP 3 mM (pH 7.3 with CsOH). The external solution for recording Kv currents contained: KCl 5 mM, NaCl 140 mM, HEPES 10 mM, CaCl2 2 mM, MgCl2 1 mM, D-Glucose 10 mM (pH 7.4 with NaOH); for recording Na currents contained: NaCl 132 mM, KCl 5.4 mM, CaCl2 1.8 mM, MgCl2 0.8 mM, HEPES 10 mM, D-Glucose 5 mM (pH 7.4 with NaOH). Kv currents were elicited by + 50 mV, 400 ms depolarizing pulse from the holding potential of − 60 mV every 20 s, and Na currents were elicited by + 10 mV, 100 ms depolarizing pulse from the holding potential of − 60 mV every 10 s. […]

[2] = system: Ca^2+ influx in Jurkat T cells; assay: Live cell Ca^2+ imaging (Fura-2) in Jurkat T cells; type: cell-based, human; conditions: for inhibition of Ca^2+ influx / free calcium concentration (in words): 10 μM Ktx-Sp2, 3 min pre-treatment, 10 μM CPA, then 2 mM Ca^2+
Experimental: Jurkat T cells were loaded with 4 μM Fura-2 AM (Life Technologies) for 60 min at 37 °C. Cells were then washed 3 times and incubated in Hank’s Balanced Salt Solution (HBSS) for 30 min at room temperature before use. Fluorescence at 340 nm and 380 nm excitation wavelengths was recorded on an inverted Nikon Ti-E microscope equipped with 340, 360 and 380 nm excitation filter wheels using NIS-Elements imaging software (Nikon Instruments Inc., Melville, NY, USA). Fura-2 ratios (F340/F380) reflect changes in [Ca^2+]i upon stimulation. Data were obtained from 100 to 250 cells in time-lapse images from each coverslip.
To test this hypothesis we performed live cell Ca^2+ imaging using the Ca^2+ indicator dye Fura-2 to determine the effect of Ktx-Sp2 on [Ca^2+]i in the presence of intracellular Ca^2+ store depletion by cyclopiazonic acid (CPA), an inhibitor of the sarcoplasmic reticulum Ca^2+-ATPase. […] When 2 mM Ca^2+ was added to the Ca^2+-free HBSS, we observed a large Ca^2+ influx into the cells. […] At 10 μM, Ktx-Sp2 decreased the F340/F380 ratio from 0.14 ± 0.02 to 0.05 ± 0.01 (n = 278) (Fig. 5b).

mNav1.4 = assay: Whole-cell patch-clamp, exogenous Nav1.4 in HEK293T cells; type: cell-based; conditions: 1 μM, +10 mV 100 ms pulse from -60 mV every 10 s
Experimental: as §1, with “The cDNAs encoding mKv1.1, mKv1.2, mKv1.3, mNav1.4, mNav1.5 and mNav1.7 were subcloned into the XhoI/BamHI sites of a bicistronic vector, pIRES2-EGFP (Clontech, USA), then transiently transfected into HEK293-T cells using Lipofectamine 2000 (Invitrogen) for electrophysiological experiments.” left out

mKv1.3 = biological target: T2, mKv1.3 (Mus musculus, UniProt P16390); assay: Whole-cell patch-clamp, exogenous Kv1.3 in HEK293T cells; type: cell-based
T2 construct: expressed in transfected cells; host or cells: HEK293T, vector pIRES2-EGFP (bicistronic, EGFP not fused)
Experimental: as §1, with “The cDNAs encoding mKv1.1, mKv1.2, mKv1.3, mNav1.4, mNav1.5 and mNav1.7 were subcloned into the XhoI/BamHI sites of a bicistronic vector, pIRES2-EGFP (Clontech, USA), then transiently transfected into HEK293-T cells using Lipofectamine 2000 (Invitrogen) for electrophysiological experiments.” left out

mNav1.7 = assay: Whole-cell patch-clamp, exogenous Nav1.7 in HEK293T cells; type: cell-based; conditions: 1 μM, +10 mV 100 ms pulse from -60 mV every 10 s
Experimental: as §1, with “The cDNAs encoding mKv1.1, mKv1.2, mKv1.3, mNav1.4, mNav1.5 and mNav1.7 were subcloned into the XhoI/BamHI sites of a bicistronic vector, pIRES2-EGFP (Clontech, USA), then transiently transfected into HEK293-T cells using Lipofectamine 2000 (Invitrogen) for electrophysiological experiments.” left out

mKv1.1 = biological target: T3, mKv1.1 (Mus musculus, UniProt P16388); assay: Whole-cell patch-clamp, exogenous Kv1.1 in HEK293T cells; type: cell-based; conditions: +50 mV 400 ms pulse from -60 mV every 20 s, room temperature (22–24 °C), mean ± SEM
T3 construct: expressed in transfected cells; host or cells: HEK293T, vector pIRES2-EGFP (bicistronic, EGFP not fused)
Experimental: as §1
Whole-cell patch-clamp recordings were performed using an EPC 9 amplifier (HEKA Elektronik, Lambrecht/Pfalz, Germany) at room temperature (22–24 °C). Pipettes pulled from borosilicate glass (BF 150-86-10; Sutter Instrument Company, Novato, CA, USA) had resistances of 2–4 MΩ when filled with the internal solution. […]

T2 sequence (P16390 whole entry, the tested form may be a part): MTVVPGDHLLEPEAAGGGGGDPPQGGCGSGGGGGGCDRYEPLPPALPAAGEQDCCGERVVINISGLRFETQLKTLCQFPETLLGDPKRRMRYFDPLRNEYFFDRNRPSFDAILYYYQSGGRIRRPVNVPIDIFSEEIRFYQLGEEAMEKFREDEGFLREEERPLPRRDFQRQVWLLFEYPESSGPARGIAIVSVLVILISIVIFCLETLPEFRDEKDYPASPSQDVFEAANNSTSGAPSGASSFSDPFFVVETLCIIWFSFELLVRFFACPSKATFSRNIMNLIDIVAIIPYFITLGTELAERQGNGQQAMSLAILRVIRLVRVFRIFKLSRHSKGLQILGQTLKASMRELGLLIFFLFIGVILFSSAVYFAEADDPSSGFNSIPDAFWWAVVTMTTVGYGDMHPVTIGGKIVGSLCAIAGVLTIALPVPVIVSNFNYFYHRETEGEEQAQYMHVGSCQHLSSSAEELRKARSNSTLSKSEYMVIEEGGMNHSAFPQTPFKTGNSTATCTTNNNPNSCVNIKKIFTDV
T1 sequence (P22001 whole entry): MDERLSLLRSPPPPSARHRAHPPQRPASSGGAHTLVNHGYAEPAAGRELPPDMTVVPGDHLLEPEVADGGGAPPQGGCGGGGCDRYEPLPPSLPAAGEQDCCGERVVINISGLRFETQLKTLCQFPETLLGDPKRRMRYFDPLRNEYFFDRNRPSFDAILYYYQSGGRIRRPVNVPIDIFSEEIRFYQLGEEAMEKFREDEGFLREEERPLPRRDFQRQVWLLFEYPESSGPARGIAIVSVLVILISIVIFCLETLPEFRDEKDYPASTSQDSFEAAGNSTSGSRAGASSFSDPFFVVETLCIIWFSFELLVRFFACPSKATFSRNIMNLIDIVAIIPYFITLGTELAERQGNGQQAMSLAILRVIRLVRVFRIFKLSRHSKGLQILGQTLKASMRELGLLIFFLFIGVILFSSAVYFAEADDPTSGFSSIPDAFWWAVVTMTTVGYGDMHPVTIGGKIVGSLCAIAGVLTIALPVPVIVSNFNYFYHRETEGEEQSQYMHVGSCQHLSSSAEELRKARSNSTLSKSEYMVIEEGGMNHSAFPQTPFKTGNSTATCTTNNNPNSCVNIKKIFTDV
T3 sequence (P16388 whole entry, the tested form may be a part): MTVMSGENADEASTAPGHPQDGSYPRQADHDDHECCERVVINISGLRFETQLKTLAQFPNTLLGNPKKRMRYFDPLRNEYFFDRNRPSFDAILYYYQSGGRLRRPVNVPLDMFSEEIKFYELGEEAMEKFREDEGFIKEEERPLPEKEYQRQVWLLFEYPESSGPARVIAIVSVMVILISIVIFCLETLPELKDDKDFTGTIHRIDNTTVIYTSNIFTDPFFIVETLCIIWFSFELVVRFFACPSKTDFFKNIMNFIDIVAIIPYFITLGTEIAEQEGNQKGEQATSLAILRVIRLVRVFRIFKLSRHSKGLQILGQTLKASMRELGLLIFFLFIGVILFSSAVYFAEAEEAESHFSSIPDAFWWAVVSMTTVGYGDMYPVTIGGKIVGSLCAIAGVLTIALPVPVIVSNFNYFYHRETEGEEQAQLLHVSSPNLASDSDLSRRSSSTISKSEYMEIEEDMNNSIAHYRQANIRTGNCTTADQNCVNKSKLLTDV

## CSCC[C@@H]1NC(=O)[C@@H]2CSSC[C@H](NC(=O)[C@H](CCCCN)NC(=O)[C@H](C)NC(=O)CNC(=O)[C@H](Cc3c[nH]cn3)NC(=O)[C@H](CC(C)C)NC(=O)[C@@H]3CCCN3C(=O)[C@@H](N)CO)C(=O)N[C@@H](CO)C(=O)N[C@@H](CO)C(=O)N[C@@H](CO)C(=O)N[C@@H](CC(N)=O)C(=O)N[C@@H](CCC(N)=O)C(=O)N[C@H]3CSSC[C@H](NC(=O)[C@H](CCCNC(=N)N)NC(=O)CNC(=O)[C@H](CC(N)=O)NC1=O)C(=O)N[C@@H](CCCNC(=N)N)C(=O)N[C@H](C(=O)N[C@@H](Cc1ccc(O)cc1)C(=O)NCC(=O)O)CSSC[C@H](NC(=O)[C@@H]1CCCN1C(=O)[C@H](CCCNC(=N)N)NC(=O)[C@H]([C@@H](C)O)NC3=O)C(=O)N[C@@H](CCCNC(=N)N)C(=O)N[C@@H](Cc1ccc(O)cc1)C(=O)NCC(=O)NCC(=O)NCC(=O)N[C@@H]([C@@H](C)O)C(=O)N[C@@H](Cc1c[nH]cn1)C(=O)NCC(=O)N[C@@H](CCCCN)C(=O)N2 [Ktx-Sp2] (H-SPLHGAKCSSSNQCTRPCRYGGGTHGKCMNGRCRCYG-OH; disulfide 8-28, 14-33, 18-35 (inferred); N-terminus and C-terminus assumed)
[1]
  blocking of endogenous Kv1.3 in Jurkat T cells (in words): effectively block endogenous Kv1.3; also recorded: equivalent to the exogenous expression Kv1.3 on the HEK293T cell membrane
[1]; 30 nM, bath application, n = 5, +50 mV 400 ms pulse from -60 mV, almost zero cytosolic Ca^2+
  reduction of Kv1.3 current: about 50%
[1]; +50 mV 400 ms pulse from -60 mV, almost zero cytosolic Ca^2+, currents normalized to control, Hill equation, read-out: IC50 for Kv1.3 current in Jurkat T cells
  IC50: 29.1 ± 1.12 nM
[1]; bath application, washout
  reversibility of suppressive effect on Kv1.3 current after washout: partially reversible after washout
[2]
  inhibition of Ca^2+ influx / free calcium concentration (in words): significantly reduce the free calcium concentration in Jurkat T cells; also recorded: obvious inhibition of Ca^2+ influx
[2]; listed as Ktx-sp2
  inhibition of Ca^2+ influx / free calcium concentration (in words): effectively reduce the concentration of free Ca^2+ in Jurkat T cells
[2]; 10 μM Ktx-Sp2, pre-treatment 3 min, store depletion by 10 μM CPA, decreased from 0.14 ± 0.02 without peptide, n = 278, ****P ≤ 0.0001
  F340/F380 ratio (net change induced by 2 mM extracellular Ca^2+): 0.05 ± 0.01
mNav1.4
  effect on Nav1.4: almost had no effect
mKv1.3; +50 mV 400 ms pulse from -60 mV every 20 s, room temperature (22–24 °C), mean ± SEM, n = 8, read-out: IC50 for mKv1.3-mediated currents
  IC50: 14.7 ± 1.98 nM
mKv1.3; exogenous channel
  blocking of Kv1.3 (in words): the blocking activity for Kv1.3 was relatively high; also recorded: the blocking activity on Kv1.3 channel is the strongest
mNav1.7
  effect on Nav1.7: almost had no effect
mKv1.1
  IC50: 485 ± 25.5 nM
